Assay results as given in patent publication US20170029454A1, “NKT CELL LIGANDS AND METHODS OF USE” (THE SCRIPPS RESEARCH INSTITUTE, priority 2013, published 2017).
pKd: −log10 of the molar value. Where two headings read alike, the source gives them in different places. One block for each molecule: values may come before it.

Tests used:
[1] = tested on: DN32.D3 NKT cells; experiment: T cell activation assay (IL-2 production) with Vα14 NKT hybridoma DN32.D3; format: cell-based; conditions: for effect of ceramidase inhibition on stimulatory activity towards NKT cells: untreated or LPS-treated DC3.2 cells, 24 h; for effect on stimulation of NKT cells, FIG. 10 legend: DC3.2 cells treated with recombinant TNFα (legend FIG. 10); for effect on stimulation of NKT cells in the context of TNFα stimulation: DC3.2 cells, TNFα stimulation (FIG. 11); for effect on stimulation of NKT cells by DCs: non-differentiated and LPS-treated DC3.2 cells, 1-deoxygalactonojirimycin 0.5 μM, 1-deoxygluconojirimycin 2.0 μM
Experimental: T cell hybridoma cells were cultured in RPMI supplemented with 10% FCS, 2 mM L-glutamine, 20 mM HEPES, and non-essential amino acids. Antigen presentation assays were carried out using 5-20×10^3 DC 3.2 cells or 1×10^5 splenocytes and 4×10^4 T cells per well in 96 well tissue culture plates in triplicates. Cell culture supernatants were collected 24 h later for determination of IL-2 concentrations using an IL-2-dependent NK cell line reporter system. NKT cells have a memory phenotype and hallmarks of “pre-activation” when analyzed ex vivo. In vitro they have been described as being highly autoreactive by their propensity at being activated by syngeneic target cells expressing CD1d molecules (Bendelac et al. 2007, Annual Rev. Immuno., 25:297; Park et al., 1998, J. Immunol., 160:3128). This phenomenon can be illustrated by the activation of Vα14 NKT hybridoma cell DN32.D3 against RBL-CD1, a CD1d positive cell line, that have been stimulated by […] ligands. Stimulation of DN32.D3 cells and TBA.7 cells, a non-Vα14 NKT cell hybridoma, was tested against RBL-CD1 or RBL-CD1 SAP^-/- in which […] expression was knocked down by interfering RNAs. The hybridoma cells were cultured in RPMI supplemented with 10% FCS, 2 mM L-glutamine, 20 mM HEPES, and non-essential amino acids. Antigen presentation assays were carried out using 5-20×10^3 DC 3.2 cells or 1×10^5 splenocytes and 4×10^4 T cells per well in 96-well tissue culture plates in triplicates. Cell culture supernatants were collected 24 h later for determination of IL-2 concentrations using an IL-2-dependent NK cell line reporter system. […] The results are shown in FIGS. 14A-E. A control (open circles) was included for comparison with each inhibitor (filled circles).

[2] = biological target: T1, ASAHL (NAAA) (Homo sapiens, UniProt Q02083); experiment: Specific activity of the ASAHL inhibitor; format: biochemical; parameters: unit not given here
T1 sequence (Q02083 29-359): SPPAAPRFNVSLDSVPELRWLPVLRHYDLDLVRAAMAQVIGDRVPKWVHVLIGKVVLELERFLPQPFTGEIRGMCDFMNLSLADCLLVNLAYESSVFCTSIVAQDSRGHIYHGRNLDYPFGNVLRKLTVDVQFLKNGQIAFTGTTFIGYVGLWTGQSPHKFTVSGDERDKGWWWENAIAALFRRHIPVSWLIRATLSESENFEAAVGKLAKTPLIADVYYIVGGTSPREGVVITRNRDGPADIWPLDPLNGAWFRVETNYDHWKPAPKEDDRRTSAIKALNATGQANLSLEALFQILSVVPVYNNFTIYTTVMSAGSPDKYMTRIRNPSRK

[3] = biological target: T2, CD1d (Mus musculus, UniProt P11609); experiment: In vitro binding of detergent to CD1d; conditions: in vitro (data not shown)
T2 sequence (P11609 19-297 limits assumed): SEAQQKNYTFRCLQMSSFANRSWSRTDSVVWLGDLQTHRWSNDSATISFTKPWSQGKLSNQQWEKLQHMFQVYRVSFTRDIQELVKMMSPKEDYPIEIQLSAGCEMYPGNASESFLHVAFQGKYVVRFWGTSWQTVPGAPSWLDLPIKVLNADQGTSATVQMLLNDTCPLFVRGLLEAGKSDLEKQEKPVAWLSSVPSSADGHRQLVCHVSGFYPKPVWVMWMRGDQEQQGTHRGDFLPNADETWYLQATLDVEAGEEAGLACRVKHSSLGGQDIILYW
T2 sequence (P01887 21-119 partner): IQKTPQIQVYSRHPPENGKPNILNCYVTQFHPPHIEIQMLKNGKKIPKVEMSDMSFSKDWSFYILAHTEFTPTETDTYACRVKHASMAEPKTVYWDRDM

[4] = biological target: L363 antibody; experiment: Surface plasmon resonance: binding of immobilized L363 antibody to CD1d-lipid complexes; conditions: for Affinity Kd (Kdiss/Kass) / Kdiss (L363 binding to CD1d-lipid complex) / pKd: lipid loaded on mCD1d, single cycle SPR, Biacore T200; for binding of L363 to lipid loaded into CD1d: SPR; for pKd: read-out: Affinity Kd (Kdiss/Kass)
Experimental: Single cycle analysis was performed on CM5 chips using 250-1000 RUs of immobilized antibody and increasing concentrations of CD1-lipid complexes.
(§1) A Biacore T200 instrument (GE Healthcare, Pittsburgh, Pa.) was used for SPR measurements. Measurements were performed using single cycle protocols to avoid repeated use of regeneration buffer on the immobilized ligands. Immobilization of target antibodies was carried out using classical amine coupling chemistry. 250 to 1,000 RU of antibody was immobilized in each flow cell. All mCD1-lipid complexes were purified after loading to ensure maximal homogeneity and avoid the presence of small amounts of aggregated material. Concentrations ranging from […] were used for each CD1-lipid complex. Flow cell one was used as a negative control and used for subtraction from experimental flow cells. Global analysis of subtracted sensorgrams was carried out using the T200 analysis software.
as §1, with “(available from GE” for “(GE”, “cells (L363 antibody—control antibody).” for “cells.”

[5] = tested on: DC3.2 cells; experiment: Toxicity of ceramidase inhibitors over a 24 h assay (viability and αGalCer presentation to DN32.D3 cells); format: cell-based
Experimental: In the absence of a suitable animal model, enzyme inhibitors were used to assess the role of ceramidases in the control of NKT ligands. […] In the T-cell activation assays, DC3.2 cells were differentiated with LPS and treated with inhibitors of α-glycosidases (GLAi and/or GAAi), 1-deoxygalactonojirimycin (0.5 μM) and 1-deoxygluconojirimycin (2.0 μM), respectively, or ceramidase inhibitors (NAAA/ASAHLi(27) (20 μM) or AC/ASAH1i, carmofur (1.0 μM) for 24 h and used to stimulate DN32.D3 NKT cells. The results are shown in FIGS. 14A-E. A control (open circles) was included for comparison with each inhibitor (filled circles).

[6] = tested on: L317 antibody; experiment: Surface plasmon resonance: binding of L317 antibody to CD1d-lipid complexes; conditions: SPR
Experimental: as §1
as §1, with “(available from GE” for “(GE”, “Flow cell one was used as a negative control and used for subtraction from experimental flow cells. Global analysis of subtracted sensorgrams was carried out using the T200 analysis software.” left out

[7] = carmofur 1.0 μM, NAAA/ASAHLi 20 μM

Molecule: O=C(CCc1ccc(-c2ccccc2)cc1)N1CCCC1 [NAAA inhibitor, 1-(2-Biphenyl-4-yl)ethyl-carbonyl pyrrolidine]
effect on stimulatory activity of thymocytes towards DN32.D3 ([1]; thymocytes as APC, NAAA/ASAHLi 20 μM): no effect
effect of ceramidase inhibition on stimulatory activity towards NKT cells [1, 7]: very limited but reproducible increase in stimulatory activity
specific activity of the inhibitor of ASAHL [2]: 10-200

binding to CD1d [3]: not bind CD1d to any measurable extent
Molecule: CCCCCCCCCCCC1(C)OCC(COCCCS(=O)(=O)[O-])O1.[Na+] (stereo not drawn) [Sodium 3-[(2-methyl-2-undecyl-1,3-dioxolan-4-yl)methoxy]-1-propanesulfonate]

Affinity Kd (Kdiss/Kass) [4]: N.M.
Molecule: CCCCCCCCCCCCCC[C@@H](O)C(O)[C@@H](N)COC1OC(CO)C(O)C(O)C1O (stereo partly drawn)

Molecule: OC[C@H]1NC[C@H](O)[C@@H](O)[C@@H]1O [1-deoxygluconojirimycin]
effect on stimulation of NKT cells, FIG. 10 legend [1]: induced or increased stimulation of NKT cells
effect on stimulation of NKT cells in the context of TNFα stimulation [1]: did not increase stimulation of NKT cells
effect on stimulation of NKT cells by DCs [1]: did not result in significant increase in stimulatory activity

Molecule: CCCCCCNC(=O)n1cc(F)c(=O)[nH]c1=O [carmofur, 1-Hexylcarbamoyl-5-fluorouracil]
increase of stimulatory activity of thymocytes towards DN32.D3 ([1]; thymocytes as APC, carmofur 1.0 μM): 2.5 fold
effect of ceramidase inhibition on stimulatory activity towards NKT cells [1, 7]: significant increase in stimulatory activity
toxicity over a 24 h assay ([5]; viability and αGalCer presentation to DN32.D3 cells after treatment): very limited cell toxicity

Affinity Kd (Kdiss/Kass) [4]: N.M.
Molecule: CCCCCCCC/C=C\CCCCCCCCCCCCCC(=O)N[C@@H](COC1OC(CO)C(O)C(O)C1O)C(O)/C=C/CCCCCCCCCCCCC (stereo partly drawn) [βGluCer24:1]
stimulatory activity towards DN32.D3 after digestion with recombinant GBA ([1]; GBA 2 h at 37° C., WT splenocytes 10^5 cells/well): Stimulatory activity was not changed

binding of L317 to lipid loaded into CD1d [6]: no ability to bind
binding of L363 to lipid loaded into CD1d [4]: no ability to bind
Molecule: αGal(α1-2)Galactosylceramide

binding of L317 to lipid loaded into CD1d [6]: no ability to bind
binding of L363 to lipid loaded into CD1d [4]: no ability to bind
Molecule: isoglobotrihexosylceramide [iGb3]

Kdiss (L363 binding to CD1d-lipid complex) [4]: 0.05 s⁻¹
pKd [4]: 6.46
Molecule: CCCCCCCC/C=C\CCCCCCCCCCCCCC(=O)N[C@@H](COC1OC(CO)C(O)C(O)C1O)C(O)/C=C/CCCCCCCCCCCCC (stereo partly drawn) [αGalCer24:1]

Molecule: OC[C@H]1NC[C@H](O)[C@@H](O)[C@H]1O [1-deoxygalactonojirimycin]
effect on stimulation of NKT cells, FIG. 10 legend [1]: induced or increased stimulation of NKT cells
effect on stimulation of NKT cells in the context of TNFα stimulation [1]: did not increase stimulation of NKT cells
effect on stimulation of NKT cells by DCs [1]: induced or increased a robust stimulation of NKT cells

Molecule: CCCCCCCCCCCCCC(=O)N[C@H](CO)[C@H](O)c1ccc([N+](=O)[O-])cc1 [NMAPPD, N-[(1R,2R)-2-hydroxy-1-(hydroxymethyl)-2-(4-nitrophenyl)ethyl]-tetradecanamide]
toxicity over a 24 h assay [5]: too much toxicity

Kdiss (L363 binding to CD1d-lipid complex) [4]: 0.0083 s⁻¹
pKd [4]: 7.01
Molecule: CCCCCCCCCCCCCCCCCCCCCCCCCC(=O)N[C@@H](COC1OC(CO)C(O)C(O)C1O)C(O)[C@H](O)CCCCCCCCCCCCCC (stereo partly drawn) [αGalCer]

Kdiss (L363 binding to CD1d-lipid complex) [4]: 0.4711 s⁻¹
pKd [4]: 5.30
Molecule: CCCCCCCCCCCCC/C=C/C(O)[C@H](COC1OC(CO)C(O)C(O)C1O)NC(=O)CCCCCCCCCCCCCCCCCCCCCCCCC (stereo partly drawn) [αGluCer]
